Source: patent US6673795B2, “Pyrimidine, pyrazine and triazane derivatives” (Hoffmann-La Roche Inc., priority 2001, dated 2004)

Columns and labels:
[1] = target: T1, rat mGluR1a receptor (Rattus norvegicus, UniProt P23385); assay: Binding assay for the characterization of mGluR 1 antagonistic properties (tritiated radioligand displacement); settings: membranes of HEK 293 cells transiently transfected with rat mGluR1a; tritiated 1-ethyl-2-methyl-6-oxo-4-(1,1,2-tritritio-1,2,4,5-tetrahydro-benzo[d]azepin-3-yl)-1,6-dihydro-pyrimidine-5-carbonitrile at 3 nM; 1 hour at room temperature
T1 construct: expressed in transfected cells; host or cells: HEK 293 cells, transient transfection; membrane preparation
T1 sequence (P23385 19-1199): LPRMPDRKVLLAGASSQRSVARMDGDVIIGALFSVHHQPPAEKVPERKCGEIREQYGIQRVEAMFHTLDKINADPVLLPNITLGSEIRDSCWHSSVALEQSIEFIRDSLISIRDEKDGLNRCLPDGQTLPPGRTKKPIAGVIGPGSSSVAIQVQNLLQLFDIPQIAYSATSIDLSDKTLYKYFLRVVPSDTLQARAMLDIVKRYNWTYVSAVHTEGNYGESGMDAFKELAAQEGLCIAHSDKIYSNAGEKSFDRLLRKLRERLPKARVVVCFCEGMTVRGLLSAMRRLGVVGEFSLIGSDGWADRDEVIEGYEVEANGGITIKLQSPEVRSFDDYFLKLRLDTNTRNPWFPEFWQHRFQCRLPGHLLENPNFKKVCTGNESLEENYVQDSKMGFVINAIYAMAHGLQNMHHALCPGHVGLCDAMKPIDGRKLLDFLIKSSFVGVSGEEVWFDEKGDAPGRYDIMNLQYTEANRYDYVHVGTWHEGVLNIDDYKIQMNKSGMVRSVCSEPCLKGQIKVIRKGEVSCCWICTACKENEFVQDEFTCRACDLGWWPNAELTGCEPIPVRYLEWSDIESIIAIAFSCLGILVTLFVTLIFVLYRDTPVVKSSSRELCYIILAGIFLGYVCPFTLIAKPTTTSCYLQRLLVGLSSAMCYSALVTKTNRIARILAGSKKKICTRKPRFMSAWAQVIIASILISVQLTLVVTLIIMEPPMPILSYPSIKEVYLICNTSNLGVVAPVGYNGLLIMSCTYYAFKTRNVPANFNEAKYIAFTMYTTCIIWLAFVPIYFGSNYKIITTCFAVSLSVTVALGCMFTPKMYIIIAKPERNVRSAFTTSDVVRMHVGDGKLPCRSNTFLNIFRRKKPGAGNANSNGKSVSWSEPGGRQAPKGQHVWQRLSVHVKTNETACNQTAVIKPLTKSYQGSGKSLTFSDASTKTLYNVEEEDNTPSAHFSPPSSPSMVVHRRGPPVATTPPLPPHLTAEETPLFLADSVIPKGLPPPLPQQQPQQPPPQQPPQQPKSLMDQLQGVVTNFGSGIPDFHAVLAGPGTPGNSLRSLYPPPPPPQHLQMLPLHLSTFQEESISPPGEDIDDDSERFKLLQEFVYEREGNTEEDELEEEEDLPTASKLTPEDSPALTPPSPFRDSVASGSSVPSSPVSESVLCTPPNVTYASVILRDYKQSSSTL
Procedure: Binding Assay for the Characterization of mGluR 1 Antagonistic Properties
Binding assay with tritiated 1-ethyl-2-methyl-6-oxo-4-(1,1,2-tritritio-1,2,4,5-tetrahydro-benzo[d]azepin-3-yl)-1,6-dihydro-pyrimidine-5-carbonitrile: HEK 293 cells were transiently transfected with the rat mGluR^1 a receptor. The cells were collected and washed 3 times with PBS. The cell pellets were frozen at −80° C. Membranes were prepared from HEK 293 cells transfected with the rat mGluR^1 a receptor and used in the binding experiments at 10 μg proteins per assay after resuspension in a HEPES NaOH 20 mM, pH=7.4 binding buffer. 1-Ethyl-2-methyl-6-oxo-4-(1,1,2-tritritio-1,2,4,5-tetrahydro-benzo [d]azepin-3-yl)-1,6-dihydro-pyrimidine-5-carbonitrile (S.A 33.4 Ci/mmol) was used at 3 nM final concentration. The incubation with variable concentrations of potential inhibitors was performed for 1 hour at room temperature, the incubate was then filtered onto GF/B glass fiber filter preincubated 1 hour in PEI 0,1% and washed 3 times with 1 ml of cold binding buffer. The radioactivity retained on the unifilter 96 was counted using a Topcount β counter. After correction for non specific binding the data were normalized and the IC50 value calculated using a 4 parameters logistic equation which was fitted to the inhibition curve.

Row | SMILES | melting point | IC50 [1]
1 | CCc1nc(C#N)c(N2CCN(c3ccccc3)CC2)nc1C [Example 75-1, 5′-ethyl-6′-methyl-4-phenyl-3,4,5,6-tetrahydro-2H-[1,2′]bipyrazinyl-3′-carbonitrile] | 99 to 101 °C | 0.017 µM
2 | CCOc1nc(C)nc(N2CCN(c3ccc(F)cc3)CC2)c1[N+](=O)[O-] [Example 10-2, 4-ethoxy-6-[4-(4-fluoro-phenyl)-piperazin-1-yl]-2-methyl-5-nitro-pyrimidine] | 116 to 119 °C | 0.18 µM
3 | Cc1nc(N2CCN(c3ccc(F)cc3)CC2)c([N+](=O)[O-])c(=O)[nH]1 [Example 1, 6-[4-(4-Fluoro-phenyl)-piperazin-1-yl]-2-methyl-5-nitro-3H-pyrimidin-4-one] | > 250 °C (dec.) | 0.81 µM
4 | N#Cc1ncc(NCCO)nc1N1CCN(c2ccc(F)cc2)CC1 [Example 83, 4-(4-Fluoro-phenyl)-6′-(2-hydroxy-ethylamino)-3,4,5,6-tetrahydro-2H-[1,2′]bipyrazinyl-3′-carbonitrile] | 149 to 151 °C | 1 µM
5 | Cc1nc(N2CCC(c3ccccc3)CC2)c([N+](=O)[O-])c(=O)[nH]1 [Example 5, 2-Methyl-5-nitro-6-(4-phenyl-piperidin-1-yl)-3H-pyrimidin-4-one] | 210 to 213 °C | 0.063 µM
6 | Cc1nc(N2CCC(c3ccc(F)cc3)CC2)c([N+](=O)[O-])c(=O)n1CCCCO [Example 18, 6-[4-(4-Fluoro-phenyl)-piperidin-1-yl]-3-(4-hydroxy-butyl)-2-methyl-5-nitro-3H-pyrimidin-4-one] | 154 to 156 °C | 0.28 µM
